Test results published in patent US20240009269A1 (priority 2020, published 2024).
No end group written: not given here.

Columns and labels:
[1] = tested on: blood-brain barrier; conditions: cited from earlier work
[2] = cited from earlier work
[3] = tested on: mouse brain (blood-brain barrier); conditions: mouse, in vivo
Excerpt: Briefly, male C57BL/6J mice (n=43, 6-8 weeks old, 20-25 g, Jackson Laboratory) were anesthetized with 2% isoflurane. The common carotid artery (CCA) bifurcation was exposed and the occipital artery branching off from the external carotid artery (ECA) was coagulated. The ECA and the pterygopalatine artery (PPA) were temporarily ligated with 4-0 silk sutures. A temporary ligature using a 4-0 suture was placed on the carotid bifurcation and the proximal CCA was permanently ligated. A microcatheter (PE-8-100, SAI Infusion Technologies) was flushed with 2% heparin (1,000 U mL^−1, heparin sodium, Upjohn), inserted into the CCA via a small arteriotomy, and advanced into the internal carotid artery (ICA).
For each animal, 150 μL of solution was infused at a rate of 150 μL minute^−1. […] The brains were harvested immediately after Evans Blue injection, sectioned in brain slicer matrix (Zivic Instruments) to produce 1 mm slabs.
Animal anesthesia was maintained at 1.5-2% during the MRI scan. Mice were placed on a water-heated animal bed equipped with temperature and respiratory control. Respiration was monitored and maintained at 30-60 minutes^−1. All MRI experiments were performed on a Bruker 11.7T MRI scanner. Baseline T2 (TR/TE=2,500/30 ms), susceptibility-weighted imaging (SWI) (TR/TE=378/8 ms), T1 (TR/TE 350/6.7 ms)-weighted, dynamic gradient echo echo-planar imaging (GE-EPI, TR/TE 1250/9.7 ms, field of view (FOV)=14×14 mm, matrix=128×128, acquisition time=60 s and 24 repetitions) and dynamic T1 imaging (TR/TE 2000/3. 5ms, field of view=14×14 mm, acquisition time=8 seconds and 20 repetitions) images of the brain were acquired. The microcatheter was connected to a syringe mounted on an MRI compatible programmable syringe pump (PHD 2000, Harvard Apparatus Inc.). Gadolinium (Gd; Prohance) dissolved in saline at 1:50 was infused intra-arterially at the rate of 150 μL minute^−1 under dynamic GE-EPI MRI for visualization of perfusion territory. […] To quantify BBB status, T1 intensities in cortex, hippocampus and thalamus/hypothalamus were compared between ipsilateral and contralateral hemispheres. T1 hyperintensity was corrected for possible asymmetry using pre-contrast T1 images and normalized as the ratio of ipsilateral to contralateral intensity. Additionally, the area of BBBO (mm^2) was calculated by conversion of T1 images to binary using the Auto Threshold function (plugin v1.17; Maximum Entropy method) [Kapur, J. N., P. K. Sahoo, and A. K. C. Wong, Computer Vision, Graphics, and Image Processing, 1985, 29(3): p. 273-285] in ImageJ. T2-weighted and SWI images were acquired at the same timepoints for detection of brain damage and microhemorrhage. Subsequently, animals were sacrificed for further histological assessment.
To determine the area and region of perfusion territory, we first calculated the contrast enhancement maps at the time where contrast enhancement was at its maximum. As Gd causes negative contrast under T2 imaging, we calculated the contrast enhancement as (SIpre-SIpost)/SIpre, where SI is the signal intensity of an MR image. Histogram was plotted for all pixels in the brain region in a contrast enhancement map and further fitted into two Gaussian distributions, assuming there were two dominant populations for non-contrast enhanced and contrast-enhanced pixels, respectively. The cutoff value to separate the two populations was then determined. The fraction of contrast enhanced areas was calculated by the ratio of the number of pixels, whose values are larger than the cutoff value, to the total number of pixels in the brain. A similar method was used to determine the BBBO territory.

[4] = tested on: tissue-engineered dhBMECs microvessels; experiment: BBB opening in tissue-engineered BBB microvessels (500 kDa dextran leakage); type: cell-based, human
Procedure: Three-dimensional blood-brain barrier microvessels were fabricated as previously reported (FIGS. 10A and 10B) [Linville, R. M., et al., Biomaterials, 2019. 190-191: p. 24-37] 150 μm diameter and 1 cm long channels were patterned in 7 mg mL^−1 type I collagen (Corning) using nitinol wire (Malin Co.) housed within polydimethylsiloxane (PDMS; Dow Corning). Channels were cross-linked by incubation in 20 mM genipin (Wako Biosciences) for 2 hours to increase cell adhesion. 2dhBMECs were suspended in BBB induction medium at a concentration of 5×10^6 cells mL^−1 and seeded into channels. Microvessels were perfused using BBB induction medium for 24 hours and then switched to BBB maintenance medium. During cell seeding and the first day of perfusion, 10 μM ROCK inhibitor Y27632 (ATCC) was supplemented to increase adhesion. An average shear stress of ˜2 dyn cm^−2 was maintained with a reservoir height difference (Δh) of 3 cm, corresponding to a volumetric flow rate of ˜250 μL h^−1 (FIG. 11D). This shear stress was estimated from the Poiseuille equation: τ=μQ)/2πd3 where μ is the media dynamic viscosity, Q is the volumetric flow rate, and d is the microvessel diameter.
Live-cell imaging was conducted to study dynamic changes in in vitro BBB permeability and microvessel structure. Microvessels were imaged using a 10×objective equipped on an inverted microscope (Nikon Eclipse TiE) maintained at 37° C. and 5% CO2 (FIG. S2C). Epifluorescence illumination was provided by an X-Cite 120LEDBoost (Excelitas Technologies). Phase contrast and fluorescence images were acquired every two minutes with the focal plane set to the microvessel midplane. The entire image collected consists of ten adjacent imaging frames. […] A dextran solute panel comprised of 200 μM Cascade Blue-conjugated 3 kDa dextran (Cat. No. D7132. Thermo Fisher Scientific), 16 μM Alexa Fluor647-conjugated 10 kDa dextran (Cat. No. D22914, Thermo Fisher Scientific), and 1.2 μM fluorescein-conjugated 500 kDa dextran (Cat. No. D7136, Thermo Fisher Scientific) was prepared in BBB maintenance medium. Fluorophores were independently excited and the respective emissions were collected using: Nikon UV-2E/C for 3 kDa dextran (50 ms exposure), Chroma 41008 for 10 kDa dextran (20 ms exposure), and Nikon B-2E/C for 500 kDa dextran (50 ms exposure).
Image processing was performed using ImageJ (NIH) to quantify BBB opening (FIGS. 11A-11D). First, images were cropped to a standard size of 6 mm×0.6 mm. To determine the spatial heterogeneity of BBB permeability, microvessels were sectioned into 10 regions of interest (ROIs), each a 0.6 mm×0.6 mm square (FIG. 11A). For each ROI, the integrated pixel density was plotted over time (FIG. 11A). The permeability (cm s^−1) was calculated using P=(r/2)(1/ΔI)(dI/dt), where r is the vessel radius, ΔI is the increase in fluorescence intensity upon perfusion of the fluorophore, and (dI/dt) is the rate of increase in fluorescence intensity as solute exits into the gel. […] To visually display permeability dynamics, heatmaps were generated from 90 instantaneous permeability values across the 10 ROIs (x-axis) and nine 10-minute periods (y-axis). […] 28(1): p. 41-51 in ImageJ (FIG. 11B). Under baseline conditions, thresholding results in the lumen designated as white (1) and extracellular matrix (ECM) as black (0). […] From binarized images, individual focal leaks were manually counted over time. Leaks emerging from the sides of the image frame were not counted. To quantify the duration of a BBB opening effect, we identified the time at which the last focal leak appeared and termed the focal leak reversibility time constant (τfocal leaks).

[5] = 25, 50, and 100 μM·minute doses

Compound: OC[C@@H](O)[C@@H](O)[C@H](O)[C@H](O)CO [mannitol]
- concentration above which BBBO is induced [1]: > 1.1 M
- solubility limit [2]: around 1.4 M
- extent of BBBO compared with 3 μM·minute melittin [3]: similar

Compound: GIGAVLKVLTTGLPALISWIKRKRQQ-NH2 [melittin-CONH2]
- slope of focal leak reversibility versus dose ([4]; compared across four variants): highest slope

Compound: RVGALKQTAIPVKSLIWGRQLIGLKT-NH2 [Mel-Scramble, reference compound]
- BBBO [4, 5]: did not induce BBBO
- change in the permeability of 500 kDa dextran following perfusion [4, 5]: no change
- focal leaks during or 24 hours after perfusion [4, 5]: no focal leaks were observed
